In BindingDB's records for patent US12234222 (Zhejiang Hisun Pharmaceutical, 2025):

Assays:
[1] = target: Proto-oncogene tyrosine-protein kinase receptor Ret (Homo sapiens, UniProt P07949); test: RET Kinase Assay
Method: The experimental steps are as follows:(1) The test compound (the compound of the present disclosure, and compound 164 in WO2018017983A1 as a control) was dissolved in 100% DMSO to a final concentration of 10 mM.(2) 4 μL of the test compound solution prepared in step (1) was dissolved with 46 μL of 100% DMSO, and the solution obtained in this step was numbered as No. 2.(3) No. 2 solution was subjected to subsequent gradient dilution with a dilution factor of 5 times (i.e. 20 μL of 100% DMSO was added to 5 μL of the compound), a total of 9 gradients, numbered 3 to 11.Note: No. 2 was not used for the dilution in step (4).(Unless otherwise specified, the following steps need to be carried out on ice)(4) The buffer provided in the kit (Cisbio, Cat. No. 62TK0PEB) was used to continuously serially dilute the solutions numbered from 3 to 11 with a dilution factor of 20 times (that is, adding 19 μL of buffer to the solutions numbered from 3 to 11). […] After the incubation, the TF-FRET mode of the microplate reader (BMG Labtech, model: FLUOStar Omega) was adopted to measure the fluorescence intensity at an excitation wavelength of 304 nm and emission wavelengths of 615 nm and […] in each well. […]

[2] = target: Vascular endothelial growth factor receptor 2 (Homo sapiens, UniProt P35968)
Chain of Vascular endothelial growth factor receptor 2 (P35968 whole entry): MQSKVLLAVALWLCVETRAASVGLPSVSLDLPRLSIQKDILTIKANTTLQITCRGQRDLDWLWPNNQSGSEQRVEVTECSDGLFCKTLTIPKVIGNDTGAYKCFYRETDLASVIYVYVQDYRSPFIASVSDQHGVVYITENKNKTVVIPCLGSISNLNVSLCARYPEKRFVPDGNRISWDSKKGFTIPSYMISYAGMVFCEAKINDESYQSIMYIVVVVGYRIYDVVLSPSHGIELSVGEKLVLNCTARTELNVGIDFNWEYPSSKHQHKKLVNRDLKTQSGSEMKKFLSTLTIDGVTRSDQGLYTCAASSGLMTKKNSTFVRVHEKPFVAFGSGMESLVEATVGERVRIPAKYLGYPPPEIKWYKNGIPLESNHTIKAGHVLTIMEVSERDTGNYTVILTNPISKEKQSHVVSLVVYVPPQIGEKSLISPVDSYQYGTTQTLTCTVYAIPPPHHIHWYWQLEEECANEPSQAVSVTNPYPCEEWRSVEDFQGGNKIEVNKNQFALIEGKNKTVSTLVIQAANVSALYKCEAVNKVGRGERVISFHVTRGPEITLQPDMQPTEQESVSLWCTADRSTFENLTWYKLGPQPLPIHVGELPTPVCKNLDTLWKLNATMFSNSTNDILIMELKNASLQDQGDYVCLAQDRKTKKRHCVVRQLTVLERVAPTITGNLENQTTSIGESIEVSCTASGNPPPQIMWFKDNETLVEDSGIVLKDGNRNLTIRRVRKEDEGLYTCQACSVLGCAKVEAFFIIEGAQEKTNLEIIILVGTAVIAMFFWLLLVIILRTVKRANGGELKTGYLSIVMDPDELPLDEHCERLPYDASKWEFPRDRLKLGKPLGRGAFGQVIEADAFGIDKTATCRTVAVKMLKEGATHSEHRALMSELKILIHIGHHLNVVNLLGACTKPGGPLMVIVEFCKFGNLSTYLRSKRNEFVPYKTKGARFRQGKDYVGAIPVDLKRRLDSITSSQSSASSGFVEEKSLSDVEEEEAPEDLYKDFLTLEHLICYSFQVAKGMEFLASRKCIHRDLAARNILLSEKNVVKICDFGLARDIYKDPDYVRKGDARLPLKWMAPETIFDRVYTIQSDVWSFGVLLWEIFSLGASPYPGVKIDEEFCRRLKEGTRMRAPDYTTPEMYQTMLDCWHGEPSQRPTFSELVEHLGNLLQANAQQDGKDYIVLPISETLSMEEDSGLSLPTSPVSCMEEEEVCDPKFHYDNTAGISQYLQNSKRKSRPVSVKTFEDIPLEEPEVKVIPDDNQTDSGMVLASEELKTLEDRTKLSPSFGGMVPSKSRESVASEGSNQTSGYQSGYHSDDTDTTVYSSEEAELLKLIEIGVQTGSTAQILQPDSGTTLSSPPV

Chain of Proto-oncogene tyrosine-protein kinase receptor Ret (P07949 whole entry): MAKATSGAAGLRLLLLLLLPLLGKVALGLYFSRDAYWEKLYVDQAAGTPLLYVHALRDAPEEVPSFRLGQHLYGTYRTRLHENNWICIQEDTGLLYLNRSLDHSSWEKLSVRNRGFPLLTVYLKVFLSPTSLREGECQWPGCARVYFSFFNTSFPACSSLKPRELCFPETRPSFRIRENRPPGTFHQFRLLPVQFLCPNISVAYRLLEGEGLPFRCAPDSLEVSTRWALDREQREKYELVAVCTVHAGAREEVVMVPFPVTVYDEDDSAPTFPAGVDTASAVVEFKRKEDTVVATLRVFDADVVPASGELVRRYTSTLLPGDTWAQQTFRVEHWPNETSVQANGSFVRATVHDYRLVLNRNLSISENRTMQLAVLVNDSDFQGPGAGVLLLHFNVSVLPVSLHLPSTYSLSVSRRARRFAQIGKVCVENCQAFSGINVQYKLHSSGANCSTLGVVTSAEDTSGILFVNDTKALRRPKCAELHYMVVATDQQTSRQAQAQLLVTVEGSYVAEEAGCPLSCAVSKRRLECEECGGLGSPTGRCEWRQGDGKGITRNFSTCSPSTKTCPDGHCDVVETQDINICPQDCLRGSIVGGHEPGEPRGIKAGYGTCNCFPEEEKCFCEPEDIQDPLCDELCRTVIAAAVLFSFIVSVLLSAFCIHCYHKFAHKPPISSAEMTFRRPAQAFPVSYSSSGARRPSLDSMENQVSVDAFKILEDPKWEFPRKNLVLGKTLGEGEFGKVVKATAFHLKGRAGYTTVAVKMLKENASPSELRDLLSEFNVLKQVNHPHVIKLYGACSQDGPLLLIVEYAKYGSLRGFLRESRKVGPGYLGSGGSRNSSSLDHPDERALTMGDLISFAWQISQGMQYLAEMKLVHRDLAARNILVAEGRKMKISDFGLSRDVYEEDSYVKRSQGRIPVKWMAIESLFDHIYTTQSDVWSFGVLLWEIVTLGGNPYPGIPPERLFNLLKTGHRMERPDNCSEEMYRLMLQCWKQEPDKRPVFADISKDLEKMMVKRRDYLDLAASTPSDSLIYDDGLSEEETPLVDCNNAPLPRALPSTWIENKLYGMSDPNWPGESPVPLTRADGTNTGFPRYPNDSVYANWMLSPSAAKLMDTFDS

**Q.** With `Cc1cc(Nc2cc(C)[nH]n2)nc(N2CC3CCC(C2)N3C(=O)c2ccc(-n3cc(Cl)cn3)nc2)n1` [US12234222, Compound I-8] as the compound, how does the IC50 [1] read?
**A.** The IC50 was 1.7 nM.

**Q.** And the IC50 [2]?
**A.** Its IC50 is 107 nM.

**Q.** For `Cc1cc(Nc2ccnc(N3CC4CCC(C3)N4C(=O)c3ccc(-n4cc(F)cn4)nn3)n2)n[nH]1` [US12234222, Compound I-14], which IC50 [1] is on record?
**A.** Its IC50 is 3.9 nM.

**Q.** And the IC50 [2]?
**A.** Its IC50 is 141 nM.
